# Data from US20170328922A1, “METHODS AND PRODUCTS FOR LABELLING LIPIDS” (UNIVERSITY OF SOUTH AUSTRALIA, priority 2014, published 2017).
# Columns and labels:
# 3T3 L1 cells = experiment: Live cell staining with rhenium molecular probes; format: cell-based; details: live samples, 10-20 μM probe
# Procedure: Probes were dissolved in DMSO to obtain a stock solution with a concentration of 10 mM. Stock solutions were stored at room temperature in a dark place. Working solutions were prepared only at the time of use as the probe has reduced solubility in aqueous solutions. A Working solution was a dilution 1/1000 to 1/500 of the stock in DMSO to PBS or cell medium, and as such the percentage of DMSO used in actual cell experiments was less than 1%.
# For tissues, the tissues were isolated in PBS (or other physiological media) and mounted on a coverslip. For cells, these were grown as per normal practice on coverslips.
# The media was removed media and replaced with 10-20 μM solution of molecular probes in PBS (or appropriate physiological media/cell media) at a dilution of stock solution from 1/1000-1/500, for 15-30 minutes at physiologically appropriate temperature (37° C. for cell culture or 25° C. for insect larvae). […] If foetal calf serum is necessary for cell health, an increased incubation time may be necessary to obtain adequate staining.
# The samples were washed for one minute in PBS. […]
# Micrographs of 3T3 L1, 453 cells and CHOK1 cells and Drosophila fat body tissue stained with rhenium molecular probes, PhenCyan top, PhenPyridyl bottom are shown in FIG. 10. […] Left: confocal images; Right: fluorescence microscopy images.
# [1] = Rhenium molecular probe-lipid overlay (dot blot); format: binding; details: FIG. 7 / FIG. 8
# Procedure: The experimental protocol probe-lipid overlay was as follows: 50 μM of each lipids was loaded on to PVDF membranes (Perkin Elmer, USA), which were then incubated with molecular probes. PhenCyano and PhenPyridyl were assessed against eleven lipids including; sphingomyelin (Cat # S0756, Sigma Aldrich, USA), sphingosine (Cat # S7049; Sigma Aldrich, USA), L-phosphatidylethanolamine (Cat # P7943, Sigma Aldrich, USA), monosialodanglioside (GM1; Cat # G7641, Sigma Aldrich, USA), oleoly-L-?-lysophosphatidic acid (Cat # L7260, Sigma Aldrich, USA), palmitic acid (Cat # P5917, Sigma Aldrich, USA), sphingomyelin (Cat # S0756, Sigma Aldrich, USA), sphingosine (Cat # S7049; Sigma Aldrich, USA), L-?-phosphatidylethanolamine (Cat # P7943, Sigma Aldrich, USA), monosialodanglioside (GM1; Cat # G7641, Sigma Aldrich, USA), progesterone (Cat #102722, MP Biomedical, USA), ceramide (Cat # C2137; Sigma Aldrich, USA), triacylglycerol mix C2-C10 (Cat #17810, Sigma Aldrich, USA) and cholesteryl acetate (Cat #151114; Sigma Aldrich, USA).
# All other molecular probes were assessed against a panel of six lipids including; sphingomyelin (Cat # S0756, Sigma Aldrich, USA), sphingosine (Cat # S7049; Sigma Aldrich, USA), L-?-phosphatidylethanolamine (Cat # P7943, Sigma Aldrich, USA), monosialodanglioside (GM1; Cat # G7641, Sigma Aldrich, USA), sphingomyelin (Cat # S0756, Sigma Aldrich, USA), sphingosine (Cat # S7049; Sigma Aldrich, USA), L-?-phosphatidylethanolamine (Cat # P7943, Sigma Aldrich, USA), monosialodanglioside (GM1; Cat # G7641, Sigma Aldrich, USA) and triacylglycerol mix C2-C10 (Cat #17810, Sigma Aldrich, USA).
# Lipids were dissolved in ethanol, methanol or isopropanol for loading depending on solubility. Following lipid loading, membranes were left to dry for 20-30 minutes, then they were washed for 10 minutes in cold 10% ethanol, before they were incubated with 10 μM solution of each Rhenium molecular probe in cold 10% ethanol for one hour. Membranes were than washed four times for 10 minutes in cold 10% ethanol prior to imaging. Imaging was performed on an Image Quant Las 4000 (GE, Sweden) luminescent image analyser, with the Rhenium molecular probe being detected by excitation at 460 nm using an epi-blue light source, and detected using an 575 nm ethidium bromide filter.
compound,measurement,setting,value
"N#Cc1ccc(-c2nn[n]([Re](=[C]=O)(=[C]=O)=[C]=O)n2)cc1.c1cnc2c(c1)ccc1cccnc12 [PhenCyano, Triscarbonyl phenanthroline (4-cyanophenyltetrazolato)Rhenium(I)]",staining pattern in 3T3 L1 cells,3T3 L1 cells,distribution consistent with lipid droplet staining
same,"interaction with triglycerides, in words",[1],no interaction detected
